US20130029970A1 (priority 2009, published 2013)
Where two headings read alike, the source gives them in different places.

What was measured:
human CB1 receptors = biological target: T1, human CB1 receptors (Homo sapiens, UniProt P21554); experiment: cAMP assay in HEK-293 cells, hCB1 agonist; type: cell-based; conditions: inhibition of forskolin-stimulated cAMP, HEK-293 cells
T1 construct: (cDNA clone) CNR01L000
Outline: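 Agonist EC50 taken as concentration giving half inhibition of forskolin-driven cAMP, normalized to forskolin maximum, from sigmoidal curves. Whole HEK-293 cells stably expressing hCB1, in HEPES/BSA-containing HBSS, exposed 30 min at 37° C. to compound with forskolin (90 uM in 3× dilution); cAMP read after lysis.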

human CB2 (hCB2) = biological target: T2, human CB2 (hCB2) (Homo sapiens, UniProt P34972); experiment: 35S GTPγS binding assay, hCB2 agonist; type: biochemical
T2 construct: (cDNA clone) CNR0200000
Experimental: (§1) cDNA expression clones for human CB1 (hCB1, Genbank Accession No. AY225225) and human CB2 (hCB2, Genbank Accession No. AY242132) expressed in vector pcDNA3.1+ were purchased from UMR cDNA Resource Center, Rolla, Mo. (Clone ID CNR01L000 for hCB1; CNR0200000 for hCB2).
Membranes were isolated from transfected cells as follows. Monolayers of cultured cells were washed twice with phosphate-buffered saline (PBS). […] Homogenates were centrifuged 10 minutes at 1000×g at 4° C. The supernatant was collected and was centrifuged for 1 hour at 40,000×g. The supernatant was then decanted and the resulting pellet was re-suspended in 20 mM HEPES, pH 7.4, 5 mM MgCl2, 1 mM EDTA, 10% sucrose with complete cocktail protease inhibitors. Protein concentration of membrane suspensions were measured by Bradford Protein Assay using bovine serum albumin as the standard (BioRad catalog #500-0006). Protein concentrations of membrane suspensions were adjusted with the final buffer in the range of 5 to 10 mg/mL and were stored at −80° C. until further use.
(§2) Functional assays which monitor G-protein coupled receptor or downstream cellular responses can be used to characterize potential CB1 receptor and/or CB2 receptor agonist or antagonist activities. Direct activation (or inhibition of activation) can be monitored using a GTPγS assay (membrane-based assay) or cAMP assay (whole cell-based assay).
(§3) ^35S GTPγS binding assays were performed by incubating recombinant cell membranes prepared above (5 μg) in the presence of scintillation proximity assay beads (SPA beads, Catalog #RPNQ0252 GE Healthcare, Buckinghamshire, England) in GTPγS binding buffer [50 mM HEPES (pH 7.4), 100 mM NaCl, 5 mM MgCl2, 0.001% saponin (Sigma catalog #S4521)] supplemented with 20 uM GDP (Sigma catalog #G7127) in the presence or absence of test compound. The reaction was carried out in 96-well microplates with 0.1 nM [^35S]GTPγS (specific activity=1250 Ci/mmol; Perkin Elmer catalog #NEG030X250UC) in a final volume of 100 uL. After a 90 min room temperature incubation, the reaction was analyzed using a scintillation counter (Perkin Elmer Microbeta instrument). Binding data were analyzed using GraphPad Prism.

human CB1 (hCB1) = biological target: T3, human CB1 (hCB1) (Homo sapiens, UniProt P21554); experiment: 35S GTPγS binding assay, hCB1 agonist; type: biochemical; conditions: GTPγS agonist, HEK-293 membranes; read-out: hCB1 EC50 (GTPyS ag)
T3 construct: (cDNA clone) CNR01L000
Description: as §1
Stable, HEK-293-derived cell lines that recombinantly express hCBI or hCB2 were established. In brief, the clone hCB1 (CNR IL) or hCB2 (CNR2) was transfected into human embryonic kidney cells (HEK-293) using Lipofectamine 2000 (Gibco, Cat#11668-019) according to the manufacturer's protocol. Transfected clones were isolated by single colony purification and clones were screened for receptor expression using a whole cell, ^3H—CP 55,940 radioligand binding assay. HEK-293 stable cells were maintained in Dulbecco's modified Eagles medium (DMEM) containing 10% fetal bovine serum, 2 mM L-glutamine and 0.5 mg/mL G-418.
Membranes were isolated from transfected cells as follows. Monolayers of cultured cells were washed twice with phosphate-buffered saline (PBS). Cells were scraped into 20 mM HEPES, pH 7.4, 10 mM EDTA containing complete cocktail protease inhibitors (Roche, Catalog #11 697 498 001) and were homogenized by an electric-powered mechanical probe homogenizer (Omni GLH; probe G7-195S) for 40 seconds at 7000 rpm. Homogenates were centrifuged 10 minutes at 1000×g at 4° C. The supernatant was collected and was centrifuged for 1 hour at 40,000×g. The supernatant was then decanted and the resulting pellet was re-suspended in 20 mM HEPES, pH 7.4, 5 mM MgCl2, 1 mM EDTA, 10% sucrose with complete cocktail protease inhibitors. Protein concentration of membrane suspensions were measured by Bradford Protein Assay using bovine serum albumin as the standard (BioRad catalog #500-0006). Protein concentrations of membrane suspensions were adjusted with the final buffer in the range of 5 to 10 mg/mL and were stored at −80° C. until further use.
as §2, §3

human CB2 receptors = biological target: T4, human CB2 receptors (Homo sapiens, UniProt P34972); experiment: cAMP assay in HEK-293 cells, hCB2 agonist; type: cell-based
T4 construct: (cDNA clone) CNR0200000
Outline: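 Stable hCB2 HEK-293 cells in HBSS/10 mM HEPES/0.1% fatty-acid-free BSA incubated 30 min at 37° C with compound; forskolin 90 uM in 3× compound mix.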

[1] = GTPγS agonist, HEK-293 membranes, read-out: hCB2 EC50 (GTPyS ag)
[2] = inhibition of forskolin-stimulated cAMP, HEK-293 cells
[3] = inhibition of forskolin-stimulated cAMP, HEK-293 cells, read-out: hCB2 EC50 (cAMP ag)

T4 sequence (P34972 whole entry): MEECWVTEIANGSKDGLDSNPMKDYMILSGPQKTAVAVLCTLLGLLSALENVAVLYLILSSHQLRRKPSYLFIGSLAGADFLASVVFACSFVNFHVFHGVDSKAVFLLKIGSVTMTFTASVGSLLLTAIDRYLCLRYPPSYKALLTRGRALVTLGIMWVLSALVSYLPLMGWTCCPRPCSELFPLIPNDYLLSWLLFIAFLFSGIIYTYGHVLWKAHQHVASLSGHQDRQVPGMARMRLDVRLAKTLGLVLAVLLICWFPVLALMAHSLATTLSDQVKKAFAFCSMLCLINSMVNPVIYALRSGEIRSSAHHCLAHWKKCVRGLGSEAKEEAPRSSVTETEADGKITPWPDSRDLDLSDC
T2 sequence (P34972 whole entry): as above
T3 sequence (P21554 whole entry): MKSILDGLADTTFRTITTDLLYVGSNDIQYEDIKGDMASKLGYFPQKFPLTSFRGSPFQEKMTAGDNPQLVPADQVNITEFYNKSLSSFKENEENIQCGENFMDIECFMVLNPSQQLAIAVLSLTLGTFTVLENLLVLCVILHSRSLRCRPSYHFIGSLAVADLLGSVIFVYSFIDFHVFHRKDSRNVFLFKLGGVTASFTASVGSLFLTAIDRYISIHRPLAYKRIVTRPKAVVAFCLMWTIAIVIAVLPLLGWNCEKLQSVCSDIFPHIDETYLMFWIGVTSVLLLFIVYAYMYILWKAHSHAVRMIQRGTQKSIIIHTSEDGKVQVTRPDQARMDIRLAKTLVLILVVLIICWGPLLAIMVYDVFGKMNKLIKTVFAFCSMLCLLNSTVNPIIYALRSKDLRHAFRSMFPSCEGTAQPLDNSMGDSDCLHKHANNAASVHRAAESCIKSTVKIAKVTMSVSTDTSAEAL
T1 sequence (P21554 whole entry): as above

Compound	hCB1 EC50 (cAMP ag, nM) (human CB1 receptors)	EC50 (human CB2 (hCB2); [1]) [µM]	EC50 (human CB1 (hCB1)) [µM]	hCB2 EC50 (cAMP ag, nM) (human CB2 receptors; [2])	EC50 (human CB2 (hCB2)) [µM]	EC50 (human CB2 receptors) [µM]	EC50 (human CB2 receptors; [3]) [µM]
COc1ccc(C(=O)c2cc3cc(C)n(CC4CCN(C(=O)OC(C)(C)C)CC4)c3s2)cn1 [Compound 179, tert-butyl 4((2-(6-methoxynicotinoyl)-5-methyl-6H-thieno[2,3-b]pyrrol-6-yl)methyl)piperidine-1-carboxylate]	NS (NS means “Not Significant,” which means less than 30% agonist activity when compared to the positive control.)	> 10	> 10	–	–	–	–
COc1ccc(C(=O)c2cc3cc(C)n(CC4CCNCC4)c3s2)cn1 [Compound 172, (6-methoxypyridin-3-yl)(5-methyl-6-(piperidin-4-ylmethyl)-6H-thieno[2,3-b]pyrrol-2-yl)methanone]	NS (NS means “Not Significant,” which means less than 30% agonist activity when compared to the positive control.)	> 10	> 10	NS (NS means “Not Significant,” which means less than 30% agonist activity when compared to the positive control.)	–	–	–
COc1ccc(C(=O)c2cc3cc(C)n(CC4COCCO4)c3s2)cn1 (centres unmarked) [Compound 177, (6((1,4-dioxan-2-yl)methyl)-5-methyl-6H-thieno[2,3-b]pyrrol-2-yl)(6-methoxypyridin-3-yl)methanone]	NS (NS means “Not Significant,” which means less than 30% agonist activity when compared to the positive control.)	–	> 10	–	1 to 10	1 to 10	–
COc1ccc(C(=O)c2cc3cc(C)n(C(=S)SC)c3s2)cc1 [Compound 155, Methyl 2-(4-methoxybenzoyl)-5-methyl-6H-thieno[2,3-b]pyrrole-6-carbodithioate]	NS (NS means “Not Significant,” which means less than 30% agonist activity when compared to the positive control.)	0.1 to 1	> 10	–	–	–	–
COc1ccc(C(=O)c2cc3cc(C)n(CCN4CCCC4COCc4ccccc4)c3s2)cn1 (centres unmarked) [Compound 178, (6-(2-(2-((benzyloxy)methyl)pyrrolidin-1-yl)ethyl)-5-methyl-6H-thieno[2,3-b]pyrrol-2-yl)(6-methoxypyridin-3-yl)methanone]	NS (NS means “Not Significant,” which means less than 30% agonist activity when compared to the positive control.)	–	> 10	NS (NS means “Not Significant,” which means less than 30% agonist activity when compared to the positive control.)	> 10	–	–
COC(=O)Cn1c(C)cc2cc(C(=O)c3ccc(OC)nc3)sc21 [Compound 168, Methyl 2-(2-(6-methoxynicotinoyl)-5-methyl-6H-thieno[2,3-b]pyrrol-6-yl)acetate]	NS (NS means “Not Significant,” which means less than 30% agonist activity when compared to the positive control.)	> 10	> 10	–	–	–	–
COc1ccc(C(=O)c2cc3cc(C)n(CCN4CCC(C(F)(F)F)CC4)c3s2)cn1 [Compound 181, (6-methoxypyridin-3-yl)(5-methyl-6-(2-(4-(trifluoromethyl)piperidin-1-yl)ethyl)-6H-thieno[2,3-b]pyrrol-2-yl)methanone]	–	–	1 to 10	NS (NS means “Not Significant,” which means less than 30% agonist activity when compared to the positive control.)	0.1 to 1	–	–
COc1ccc(C(=O)c2cc3cc(C)n(CC4CCOC4)c3s2)cn1 (centres unmarked) [Compound 159, (6-methoxypyridin-3-yl)(5-methyl-6-((tetrahydrofuran-3-yl)methyl)-6H-thieno[2,3-b]pyrrol-2-yl)methanone]	NS (NS means “Not Significant,” which means less than 30% agonist activity when compared to the positive control.)	–	> 10	–	> 10	1 to 10	–
COc1ccc(C(=O)c2cc3cc(C)n(CCNC4CCOCC4)c3s2)cn1 [Compound 163, (6-methoxypyridin-3-yl)(5-methyl-6-(2-((tetrahydro-2H-pyran-4-yl)amino)ethyl)-6H-thieno[2,3-b]pyrrol-2-yl)methanone]	NS (NS means “Not Significant,” which means less than 30% agonist activity when compared to the positive control.)	–	> 10	–	1 to 10	0.1 to 1	–
COc1ccc(C(=O)c2cc3cc(C)n(C)c3s2)cn1 [Compound 174, (5,6-dimethyl-6H-thieno[2,3-b]pyrrol-2-yl)(6-methoxypyridin-3-yl)methanone]	NS (NS means “Not Significant,” which means less than 30% agonist activity when compared to the positive control.)	> 10	> 10	–	–	–	–
COc1ccc(C(=O)c2cc3cc(C)n(CCN4CCOC(C)(C)C4)c3s2)cn1 [Compound 162, (6-(2-(2,2-dimethylmorpholino)ethyl)-5-methyl-6H-thieno[2,3-b]pyrrol-2-yl)(6-methoxypyridin-3-yl)methanone]	NS (NS means “Not Significant,” which means less than 30% agonist activity when compared to the positive control.)	> 10	> 10	–	–	–	0.1 to 1
COc1ccc(C(=O)c2cc3cc(C)n(CC(=O)O)c3s2)c(F)c1 [Compound 176, 2-(2-(2-fluoro-4-methoxybenzoyl)-5-methyl-6H-thieno[2,3-b]pyrrol-6-yl)acetic acid]	NS (NS means “Not Significant,” which means less than 30% agonist activity when compared to the positive control.)	> 10	> 10	–	–	–	< 0.1
COc1ccc(C(=O)c2cc3cc(C)n(CC(=O)O)c3s2)cn1 [Compound 166, 2-(2-(6-methoxynicotinoyl)-5-methyl-6H-thieno[2,3-b]pyrrol-6-yl)acetic acid]	NS (NS means “Not Significant,” which means less than 30% agonist activity when compared to the positive control.)	> 10	> 10	NS (NS means “Not Significant,” which means less than 30% agonist activity when compared to the positive control.)	–	–	–
